This passage reports IC50 results from US20240109918A1, “HETEROCYCLIC COMPOUNDS AND USES THEREOF” (Kumquat Biosciences Inc., priority 2022, published 2024).

Test [1] concerns the target T1, KRASG12D (Homo sapiens, UniProt P01116, G12D).
T1 construct: made in house; host or cells: E. coli BL21 (DE3)
In words: Bio-Biochem-PPI-HTRF Ras-SOS1 interaction assay (KRAS G12D). The following applies: 5 nM. Format: biochemical. The procedure, abridged: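 Compounds tested in duplicate (10 μM to 0.01 μM) for disruption of His-hSOS1 binding to GST-tagged wild-type or G12D K-Ras in HEPES pH 7.4 buffer. TR-FRET read (Eu donor, XL665 acceptor) after about 10 min or longer; IC50 derived from the 665/620 nm emission ratio.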

For test [2], the target named is T2, KRASwt (Homo sapiens, UniProt P01116).
T2 construct: made in house; host or cells: E. coli BL21 (DE3)
T2 sequence (P01116 1-188 isoform P01116-2): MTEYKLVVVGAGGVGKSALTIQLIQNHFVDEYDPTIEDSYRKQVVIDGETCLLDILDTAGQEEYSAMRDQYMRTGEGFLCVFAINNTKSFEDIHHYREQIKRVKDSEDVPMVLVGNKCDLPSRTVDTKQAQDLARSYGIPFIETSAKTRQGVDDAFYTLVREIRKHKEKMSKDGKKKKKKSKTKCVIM
In words: Bio-Biochem-PPI-HTRF Ras-SOS1 interaction assay (KRAS wt). Format: biochemical. The following applies: 5 nM. The protocol:
The assay buffer can contain −5 mM HEPES pH 7.4, ˜150 mM NaCl, ˜ 1 mM DTT, 0.05% BSA and 0.0025% (v/v) Igepal. A Ras working solution is prepared in an assay buffer containing typically a suitable amount of the protein construct (e.g., GST-tagged K-Ras mutant) and the FRET donor (e.g., antiGST-Eu(K) from Cisbio, France). A SOS1 working solution is prepared in an assay buffer containing suitable amount of the protein construct (e.g., His-hSOS1) and the FRET acceptor (e.g., anti-6His-XL665 from Cisbio, France). A suitable amount of the protein construct will depend on the range of activity or range of IC50 values being detected or under investigation. For detecting IC50 within a range of 500 nM, the protein constructs of the same range of molarity can be utilized. […] A fixed volume of DMSO with or without test compound is transferred into a 384-well plate. Ras working solution is added to all wells of the test plate. SOS1 working solution is added to all wells except for those that are subsequently filled the inhibitor control solution. Upon incubation for about 10 minutes or longer, the fluorescence is measured with a M1000Pro plate reader (Tecan) using HTRF detection (excitation 337 nm, emission 1:620 nm, emission 2: 665 nm). Compounds are tested in duplicates at different concentrations (for example, 10 μM, 2.5 μM, 0.63 μM, 0.16 μM, 0.04 μM, 0.01 μM test compound). The ratiometric data (i.e., emission 2 divided by emission 1) is used to calculate IC50 values against Ras using GraphPad Prism (GraphPad software). Following this general procedure, samples were tested with or without a subject compound disclosed herein including compounds exemplified in Table 1 to assess their abilities to inhibit a mutant K-Ras relative to another mutant K-Ras or wildtype K-Ras. Signaling output measured in terms of IC50 values can be obtained, a ratio of IC50 against one mutant relative to another mutant can be calculated. For instance, a selective reduction of K-Ras G12D signaling output can be evidenced by a ratio greater than one. In particular, a selective reduction of K-Ras G12D signaling relative to K-Ras WT signaling is evidenced as the ratio of IC50 (against K-Ras WT) to IC50 (against K-Ras G12D) is greater than 1.

T1 sequence (P01116 1-188 isoform P01116-2 G12D): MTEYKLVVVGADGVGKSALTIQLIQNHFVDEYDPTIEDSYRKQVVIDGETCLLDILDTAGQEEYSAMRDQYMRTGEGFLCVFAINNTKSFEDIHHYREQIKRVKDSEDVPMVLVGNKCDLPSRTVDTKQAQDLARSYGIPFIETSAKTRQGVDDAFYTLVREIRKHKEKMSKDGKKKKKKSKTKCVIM

With `N#Cc1c(N)sc2c(F)ccc(-c3c(Cl)cc4c(N5CCCCC6(CN(C(=O)C7CC7)C6)C5)nc(OC[C@@]56CCCN5C[C@H](F)C6)nc4c3F)c12` [compound 201, 2-amino-4-(6-chloro-4-(2-(cyclopropanecarbonyl)-2,6-diazaspiro[3.6]decan-6-yl)-8-fluoro-2-(((2R,7aS)-2-fluorotetrahydro-1H-pyrrolizin-7a(5H)-yl)methoxy)quinazolin-7-yl)-7-fluorobenzo[b]thiophene-3-carbonitrile], the IC50 in test [1] and in test [2] was less than 5 µM each time.

For `N#Cc1c(N)sc2c(F)ccc(-c3c(Cl)cc4c(N5CCCC6(CN(C(=O)C7CC7)C6)C5)nc(OC[C@@]56CCCN5C[C@H](F)C6)nc4c3F)c12` [compound 120, 2-amino-4-(6-chloro-4-(2-(cyclopropanecarbonyl)-2,6-diazaspiro[3.5]nonan-6-yl)-8-fluoro-2-(((2R,7aS)-2-fluorotetrahydro-1H-pyrrolizin-7a(5H)-yl)methoxy)quinazolin-7-yl)-7-fluorobenzo[b]thiophene-3-carbonitrile], the IC50 in test [1] and in test [2] was less than 5 µM throughout.

For the compound `N#Cc1c(N)sc2c(F)ccc(-c3c(Cl)cc4c(N5CCOCC6(CN(C(=O)[C@H]7CC7(F)F)C6)C5)nc(OC[C@@]56CCCN5C[C@H](F)C6)nc4c3F)c12` [compound 247, 2-amino-4-(6-chloro-4-(2-((R)-2,2-difluorocyclopropane-1-carbonyl)-6-oxa-2,9-diazaspiro[3.6]decan-9-yl)-8-fluoro-2-(((2R,7aS)-2-fluorotetrahydro-1H-pyrrolizin-7a(5H)-yl)methoxy)quinazolin-7-yl)-7-fluorobenzo[b]thiophene-3-carbonitrile], the IC50 in test [1] and in test [2] was less than 5 µM each time.

Take `Cn1nc(C(F)F)cc1C(=O)N1CC2(CCCCN(c3nc(OC[C@@]45CCCN4C[C@H](F)C5)nc4c(F)c(-c5ccc(F)c6sc(N)c(C#N)c56)c(Cl)cc34)C2)C1` [compound 343, 2-amino-4-(6-chloro-4-(2-(3-(difluoromethyl)-1-methyl-1H-pyrazole-5-carbonyl)-2,6-diazaspiro[3.6]decan-6-yl)-8-fluoro-2-(((2R,7aS)-2-fluorotetrahydro-1H-pyrrolizin-7a(5H)-yl)methoxy)quinazolin-7-yl)-7-fluorobenzo[b]thiophene-3-carbonitrile]: the IC50 in test [1] and in test [2] was less than 5 µM throughout.

Regarding `Nc1nc2c(-c3c(Cl)cc4c(N5CCC6(CC5)CN(S(=O)(=O)F)C6)nc(OC[C@@]56CCCN5C[C@H](F)C6)nc4c3F)ccc(F)c2s1` [compound 191, 7-(7-(2-amino-7-fluorobenzo[d]thiazol-4-yl)-6-chloro-8-fluoro-2-(((2R,7aS)-2-fluorotetrahydro-1H-pyrrolizin-7a(5H)-yl)methoxy)quinazolin-4-yl)-2,7-diazaspiro[3.5]nonane-2-sulfonyl fluoride], the half-maximal inhibitory concentration (IC50) in test [1] was no less than 5 µM; in test [2] it was less than 5 µM.

Regarding `N#Cc1c(N)sc2c(F)ccc(-c3c(Cl)cc4c(N5CCCCC6(CN(C(=O)N7CC(F)C7)C6)C5)nc(OC[C@@]56CCCN5C[C@H](F)C6)nc4c3F)c12` [compound 250, 2-amino-4-(6-chloro-8-fluoro-4-(2-(3-fluoroazetidine-1-carbonyl)-2,6-diazaspiro[3.6]decan-6-yl)-2-(((2R,7aS)-2-fluorotetrahydro-1H-pyrrolizin-7a(5H)-yl)methoxy)quinazolin-7-yl)-7-fluorobenzo[b]thiophene-3-carbonitrile], the IC50 in test [1] and in test [2] was less than 5 µM each time.

`CC(C)C(=O)N1CC2(CCCCN(c3nc(OC[C@@]45CCCN4C[C@H](F)C5)nc4c(F)c(-c5ccc(F)c6sc(N)c(C#N)c56)c(Cl)cc34)C2)C1` [compound 197, 2-amino-4-(6-chloro-8-fluoro-2-(((2R,7aS)-2-fluorotetrahydro-1H-pyrrolizin-7a(5H)-yl)methoxy)-4-(2-isobutyryl-2,6-diazaspiro[3.6]decan-6-yl)quinazolin-7-yl)-7-fluorobenzo[b]thiophene-3-carbonitrile]: the IC50 in test [1] and in test [2] was less than 5 µM throughout.

Take `CC1(C(=O)N2CC3(CCCCN(c4nc(OC[C@@]56CCCN5C[C@H](F)C6)nc5c(F)c(-c6ccc(F)c7sc(N)c(C#N)c67)c(Cl)cc45)C3)C2)CC1(F)F` (stereo partly drawn) [compound 277, 2-amino-4-(6-chloro-4-(2-(2,2-difluoro-1-methylcyclopropane-1-carbonyl)-2,6-diazaspiro[3.6]decan-6-yl)-8-fluoro-2-(((2R,7aS)-2-fluorotetrahydro-1H-pyrrolizin-7a(5H)-yl)methoxy)quinazolin-7-yl)-7-fluorobenzo[b]thiophene-3-carbonitrile]: the IC50 in test [1] and in test [2] was less than 5 µM each time.

`C[C@H](Oc1nc(N2CCCC3(CN(C(=O)c4ccnn4C)C3)C2)c2cc(Cl)c(-c3ccc(F)c4sc(N)c(C#N)c34)c(F)c2n1)[C@@H]1CCCN1C` [compound 127, 2-amino-4-(6-chloro-8-fluoro-4-(2-(1-methyl-1H-pyrazole-5-carbonyl)-2,6-diazaspiro[3.5]nonan-6-yl)-2-((S)-1-((S)-1-methylpyrrolidin-2-yl)ethoxy)quinazolin-7-yl)-7-fluorobenzo[b]thiophene-3-carbonitrile]: the IC50 in test [1] and in test [2] was less than 5 µM each time.

In the case of `N#Cc1c(N)sc2c(F)ccc(-c3c(Cl)cc4c(N5CCC6(CC5)CN(C(=O)C5CC5(F)F)C6)nc(OC[C@@]56CCCN5C[C@H](F)C6)nc4c3F)c12` (stereo partly drawn) [compound 131, 2-amino-4-(6-chloro-4-(2-(2,2-difluorocyclopropane-1-carbonyl)-2,7-diazaspiro[3.5]nonan-7-yl)-8-fluoro-2-(((2R,7aS)-2-fluorotetrahydro-1H-pyrrolizin-7a(5H)-yl)methoxy)quinazolin-7-yl)-7-fluorobenzo[b]thiophene-3-carbonitrile], the IC50 in test [1] and in test [2] was less than 5 µM in each case.

On to `N#Cc1c(N)sc2c(F)ccc(-c3c(Cl)cc4c(N5CCOC6(CN(C(=O)N7CC(C#N)C7)C6)C5)nc(OC[C@@]56CCCN5C[C@H](F)C6)nc4c3F)c12` [compound 257, 1-(8-(7-(2-amino-3-cyano-7-fluorobenzo[b]thiophen-4-yl)-6-chloro-8-fluoro-2-(((2R,7aS)-2-fluorotetrahydro-1H-pyrrolizin-7a(5H)-yl)methoxy)quinazolin-4-yl)-5-oxa-2,8-diazaspiro[3.5]nonane-2-carbonyl)azetidine-3-carbonitrile], for which the IC50 in test [1] and in test [2] was less than 5 µM in each case.

For the compound `CC(C)NC(=O)N1CC2(CC(Nc3nc(OCC45CCCN4C[C@H](F)C5)nc4c(F)c(-c5ccc(F)c6sc(N)c(C#N)c56)c(Cl)cc34)C2)C1` (stereo partly drawn) [compound 151, 6-((7-(2-amino-3-cyano-7-fluorobenzo[b]thiophen-4-yl)-6-chloro-8-fluoro-2-(((2R)-2-fluorotetrahydro-1H-pyrrolizin-7a(5H)-yl)methoxy)quinazolin-4-yl)amino)-N-isopropyl-2-azaspiro[3.3]heptane-2-carboxamide], the IC50 in test [1] and in test [2] was less than 5 µM throughout.
